From article PMC6100043, “Development of Thiophene Compounds as Potent Chemotherapies for the Treatment of Cutaneous Leishmaniasis Caused by Leishmania major” (Molecules : A Journal of Synthetic Chemistry and Natural …, 2018)
Where two headings read alike, the source gives them in different places.

How the values were obtained:
[1] = system: L. major-luc promastigotes; experiment: Luciferase assay, viability of L. major-luc promastigotes; type: cell-based, Leishmania major; details: 72 h at 28 °C, 2 × 10^6 promastigotes per mL, luciferase activity
[2] = Mammalian cell cytotoxicity (alamarBlue for 5A; PI/Hoechst HCIA for 5D, 5E) in IPΦ; details: BALB/c, mouse, intraperitoneal mouse macrophages (IPΦ)
[3] = system: intraperitoneal mouse macrophages (IPΦ); experiment: as above; details: for S.I. IPΦ (CC50 mammalian cells)/(EC50 in L. major-luc promastigotes): IPΦ vs L. major-luc promastigotes
[4] = Mammalian cell cytotoxicity (alamarBlue for 5A; PI/Hoechst HCIA for 5D, 5E) in LLC-MK2; details: rhesus monkey, LLC-MK2 kidney epithelial cells
[5] = system: monkey kidney cells (LLC-MK2); experiment: as above; details: for S.I. LLC-MK2 (CC50 mammalian cells)/(EC50 in L. major-luc promastigotes): LLC-MK2 vs L. major-luc promastigotes
[6] = system: L. major intracellular amastigotes; experiment: High-Content Imaging Assay, proliferation of intracellular amastigotes in infected IPΦ; type: cell-based, Leishmania major; details: for number of infected cells compared to control treated with 1% DMSO: 2.5 µM, infected IPΦ; for number of infected cells compared to control treated with 1% DMSO / inhibition at 0.625 µM: 48 h; for inhibition at 0.625 µM: Leishmania major, read-out: inhibition of the proliferation of intracellular amastigotes
L. major promastigotes = experiment: Measurement of reactive oxygen species levels (H2DCFDA); type: cell-based, Leishmania major; details: 5D at EC50, 24 h incubation + 7 h reading (31 h), H2DCFDA 10 µM
[7] = set-up: method as in PMID 25365529, PMID 26230675; details: cited from earlier work
[8] = read-out: EC50 Leishmania major-luc promastigotes

Row | Molecule | EC50 ([1]; Leishmania major, 72 h) | CC50 at 48 h [2] | S.I. IPΦ (CC50 mammalian cells)/(EC50 in L. major-luc promastigotes) [3] | CC50 at 72 h [4] | other results
1 | CCOC(=O)c1c(NC(=O)c2ccc(C(F)(F)F)cc2)sc2c1CC(C)(C)NC2(C)C [Compound 5A, Ethyl 5,5,7,7-tetramethyl-2-(4-(trifluoromethyl)benzamido)-4,5,6,7-tetrahydrothieno[2,3-c]pyridine-3-carboxylate] | ~0.34 µM | ~10.4 µM | 30.50 | 17.7 ± 1.12 µM | EC50 [1, 8]: ~0.341 µM; cytotoxicity for IPΦ ([3]; at 5 and 10 µM, in HCIA of infected IPΦ, 48 h): cytotoxic; S.I. LLC-MK2 (CC50 mammalian cells)/(EC50 in L. major-luc promastigotes) [5]: 52.85
2 | CCOC(=O)c1c(NC(=O)c2ccccc2C(F)(F)F)sc2c1CC(C)(C)NC2(C)C [Compound 5B, Ethyl-5,5,7,7-tetramethyl-2-(2-(trifluoromethyl)benzamido)-4,5,6,7-tetrahydrothieno[2,3-c]pyridine-3-carboxylate] | 5.98 ± 1.72 µM |  |  |  | 
3 | CCOC(=O)c1c(NC(=O)c2cccc(C(F)(F)F)c2F)sc2c1CC(C)(C)NC2(C)C [Compound 5D, Ethyl-2-(2-fluoro-3-(trifluoromethyl)benzamido)-5,5,7,7-tetramethyl-4,5,6,7-tetrahydrothieno[2,3-c]-pyridine-3-carboxylate] |  | 27.9 ± 3.19 µM | 310 | > 80 µM | number of infected cells compared to control treated with 1% DMSO [6]: reduced number of infected cells; inhibition at 0.625 µM [6]: > 75%; decrease of the proliferation of the parasite (intracellular amastigotes) ([6]; infected murine macrophages, concentration not given): 80%; ROS levels, fold higher compared to vehicle control 1% DMSO (L. major promastigotes): 14.5 fold; selectivity compared with parent compound 5A ([3]; fold higher than 5A): 10 fold; toxicity against LLC-MK2 ([5]; at concentrations up to 80 µM, 72 h): did not display perceptible toxicity
4 | CCOC(=O)c1c(NC(=O)c2ccc(F)c(C(F)(F)F)c2)sc2c1CC(C)(C)NC2(C)C [Compound 5E, Ethyl-2-(4-fluoro-3-(trifluoromethyl)benzamido)-5,5,7,7-tetramethyl-4,5,6,7-tetrahydrothieno[2,3-c]-pyridine-3-carboxylate] | 0.78 ± 0.11 µM | 16.6 ± 1.52 µM | 21.27 | 80 ± 4.45 µM | number of infected cells compared to control treated with 1% DMSO [6]: reduced number of infected cells; inhibition at 0.625 µM [6]: > 50%; S.I. LLC-MK2 (CC50 mammalian cells)/(EC50 in L. major-luc promastigotes) [5]: 102.56
5 | CC1(C)Cc2c(sc(NC(=O)c3cc(Cl)ccc3C(F)(F)F)c2C(=O)O)C(C)(C)N1 [Compound 5F, 2-(5-chloro-2-(trifluoromethyl)benzamido)-5,5,7,7-tetramethyl-4,5,6,7-tetrahydrothieno[2,3-c]pyridine-3-carboxylic acid] | > 12.5 µM |  |  |  | 
6 | CC1(C)Cc2c(sc(NC(=O)c3ccccc3C(F)(F)F)c2C(=O)O)C(C)(C)N1 [Compound 5G, 5,5,7,7-tetramethyl-2-(2-(trifluoromethyl)benzamido)-4,5,6,7-tetrahydrothieno[2,3-c]pyridine-3-carboxylic acid] | > 12.5 µM |  |  |  | 
7 | COC(=O)c1c(NC(=O)c2ccc(F)c(C(F)(F)F)c2)sc2c1CC(C)(C)NC2(C)C [Compound 5H, Methyl-2-(4-fluoro-3-(trifluoromethyl)benzamido)-5,5,7,7-tetramethyl-4,5,6,7-tetrahydrothieno[2,3-c]-pyridine3-carboxylate] | 3.05 ± 0.47 µM |  |  |  | 
8 | COC(=O)c1c(NC(=O)c2ccccc2C(F)(F)F)sc2c1CC(C)(C)NC2(C)C [Compound 5I, Methyl-5,5,7,7-tetramethyl-2-(2-(trifluoromethyl)benzamido)-4,5,6,7-tetrahydrothieno[2,3-c]pyridine-3-carboxylate] | 5.5 ± 1.8 µM |  |  |  | 
9 | CCCCCCCCCCCCCCCCOP(=O)([O-])OCC[N+](C)(C)C [Miltefosine, miltefosine] |  |  |  |  | half-life [7]: 150 h
10 | Ethyl-5,5,7,7-tetramethyl-2-(2-(trifluoromethyl)benzamido)-4,5,6,7-tetrahydrothieno[2,3-c]pyridine-3-carboxylate [Compound 5C] |  |  |  |  | EC50 [1, 8]: 4.73 ± 0.69 µM
